Laboratory results as given in ChEMBL document CHEMBL2074113, “Interaction of human organic anion transporters 2 and 4 with organic anion transport inhibitors” (J Pharmacol Exp Ther, 2002).

Key:
[1] = molecular target: T1, Solute carrier family 22 member 7 (Homo sapiens, UniProt Q9Y694); assay: TP_TRANSPORTER: inhibition of PGF2alpha uptake in OAT2-expressing S2 cells; assay type: functional, cell-based; conditions: for Activity: s2
T1 sequence (Q9Y694 whole entry): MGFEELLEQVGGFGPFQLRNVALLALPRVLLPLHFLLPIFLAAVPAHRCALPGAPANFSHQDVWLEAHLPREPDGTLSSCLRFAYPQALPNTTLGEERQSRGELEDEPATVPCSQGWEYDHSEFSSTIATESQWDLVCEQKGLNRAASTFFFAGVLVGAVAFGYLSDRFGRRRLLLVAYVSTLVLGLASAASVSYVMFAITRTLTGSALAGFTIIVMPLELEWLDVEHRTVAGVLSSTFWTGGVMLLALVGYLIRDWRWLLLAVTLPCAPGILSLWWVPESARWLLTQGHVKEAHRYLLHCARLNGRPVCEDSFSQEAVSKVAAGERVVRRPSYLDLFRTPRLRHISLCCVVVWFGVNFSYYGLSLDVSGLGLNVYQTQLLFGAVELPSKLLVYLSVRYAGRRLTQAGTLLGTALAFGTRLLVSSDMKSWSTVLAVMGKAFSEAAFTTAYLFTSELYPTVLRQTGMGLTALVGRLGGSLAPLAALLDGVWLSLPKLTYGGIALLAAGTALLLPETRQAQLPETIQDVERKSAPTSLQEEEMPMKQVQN

[2] = molecular target: T2, Solute carrier family 22 member 11 (Homo sapiens, UniProt Q9NSA0); assay: TP_TRANSPORTER: inhibition of E1S uptake in OAT4-expressing S2 cells; assay type: functional, cell-based
T2 sequence (Q9NSA0 whole entry): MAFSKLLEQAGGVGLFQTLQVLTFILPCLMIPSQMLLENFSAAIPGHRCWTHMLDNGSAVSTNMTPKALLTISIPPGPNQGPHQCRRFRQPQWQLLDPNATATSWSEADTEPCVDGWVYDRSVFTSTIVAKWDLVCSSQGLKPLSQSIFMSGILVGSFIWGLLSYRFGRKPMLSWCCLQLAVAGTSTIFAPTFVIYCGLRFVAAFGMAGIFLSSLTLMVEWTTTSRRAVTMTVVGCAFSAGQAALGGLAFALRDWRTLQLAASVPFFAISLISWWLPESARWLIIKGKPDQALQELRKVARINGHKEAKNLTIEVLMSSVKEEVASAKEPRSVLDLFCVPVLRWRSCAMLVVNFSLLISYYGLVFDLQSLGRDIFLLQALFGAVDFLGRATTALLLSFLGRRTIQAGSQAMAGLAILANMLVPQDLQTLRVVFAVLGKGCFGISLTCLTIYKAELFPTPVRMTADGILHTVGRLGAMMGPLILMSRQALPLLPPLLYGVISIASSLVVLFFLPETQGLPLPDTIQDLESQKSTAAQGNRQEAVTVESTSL

| Structure (SMILES) | Activity [1] | Ki [2] | Ki [1] |
| --- | --- | --- | --- |
| CCCn1c(=O)c2[nH]c(C34CC5CC(CC3C5)C4)nc2n(CCC)c1=O [ROLOFYLLINE] | is not an inhibitor [-] | 20.7 µM | – |
| O=C(O)CCNC(=O)c1ccccc1 [BETAMIPRON] | is not an inhibitor [-] | 502 µM | – |
| CCCN(CCC)S(=O)(=O)c1ccc(C(=O)O)cc1 [PROBENECID] | – | – | 766 µM |
| CC1(C)C[C@@H]1C(=O)N/C(=C\CCCCSC[C@H](N)C(=O)O)C(=O)O [CILASTATIN] | is not an inhibitor [-] | – | – |
